Tests used:
Assay type in all cases: in vivo, rat
[1] = test system: arginine stimulated insulin secretion; assay: arginine stimulated insulin secretion in anaesthetized fasted rats (plasma IRI); details: for ΔIRI, mean incremental change of IRI from basal: infused with arginine, 30 min, mean ± SEM
Method: (§1) The in vivo activity of the peptide of formula I is established by subjecting the peptide of formula I, in which X is (CH2)2 as a representative peptide of this invention, to the following standard test procedures.
(§2) Male Sprague Dawley rats (200±10 gm) body weight are used throughout these studies. They are maintained on an ad libitum diet of Purina Lab Chow and tap water until 24 hr before the studies are carried out. In the 24 hr period prior to use, the animals are fasted, but have unlimited access to tap water. All studies are conducted on sodium pentobarbital, sold under the trademark Nembutal, (Abbott Labs, Montreal), 60 mg/kg, ip, anaesthetized rats.
(§3) In studies where both insulin and glucagon secretion are investigated, arginine (arginine-HCl in 0.9% aqueous sodium chloride, pH 7.4, 200 mg/100 gm rat, Nutritional Biochemicals, Cleveland) is infused into an exposed jugular vein (2.0 ml/30 min).
(§4) The peptide of formula I or somatostatin at various concentrations is infused simultaneously with the arginine or glucose stimulus, with the aid of a butterfly infusion set (23 guage) into the test animals. The effect of the vehicle on the release of the hormones is determined by infusing the saline diluent into selected rats.
(§5) The blood samples are discharged into chilled (4° C.) glass test tubes, containing aprotinin, sold under the trademark Trasylol, (Boehringer Ingelheim, Montreal), 500 KIU/ml whole blood, and plasma samples were collected after centrifugation (4° C., 3000 rpm for 30 min). The plasma samples were stored at -20° until assayed for immuno reactive glucagon (IRG) using antiserum 30 K and for immuno reactive insulin (IRI) by the methods described by W. Lippmann and M. Kobric, Horm. Metab. Res., 10, 280 (1978).
(§6) All results are expressed as the mean ±SEM of the response. Insulin and glucagon responses obtained in the arginine treated groups are derived by subtracting the basal hormone level from the level at 30 min, and are expressed in Tables I, II and III as ΔIRG (pg/ml) and ΔIRI/(μU/ml), for glucagon and insulin, respectively. Insulin results obtained from the glucose treated animals are in absolute hormone level at the termination of the infusion.
(§7) Wilcoxon's two sample test for unpaired observations, as described in "Statistical Methods", G. W. Snedecor and W. G. Cochran, ed., sixth edition, the Iowa State University Press, Ames, Iowa, 1973, pp 130 and 131, is used to determine the significance of the peptide+arginine or peptide+glucose versus the responses due to arginine or glucose alone. In selected instances, parallel dose-response line assay by analysis of variance, as described in "Statistical Method in Biological Assay", D. J. Finney, ed., second edition, Hafner Publishing Company, New York, 1964, is used to determine the relative potency of the 2 peptides in the bioassays. A p≤0.05 is deemed to be significant.

[2] = test system: arginine stimulated glucagon secretion; assay: arginine stimulated glucagon secretion in anaesthetized fasted rats (plasma IRG); details: for ΔIRG, mean incremental change of plasma IRG from level at 0 min to level at 30 min: mean ± SEM
Method: as §1, §2, §3, §4, §5, §6, §7

[3] = test system: glucose stimulated insulin secretion; assay: glucose stimulated insulin secretion in anaesthetized fasted rats (plasma IRI); details: for IRI/ml, level observed at 30 min: absolute level, mean ± SEM
Method: as §1, §2
In studies where only insulin secretion is stimulated, glucose in 0.9% aqueous sodium chloride (British Drug House, Poole, England) is infused into an exposed jugular vein (100 mg/100 gm, in a volume of 2.0 ml for 30 min).
as §4, §5, §6, §7

Compound: C[C@H](N)C(=O)NCC(=O)N[C@H]1CSSC[C@@H](C(=O)O)NC(=O)[C@H](CO)NC(=O)[C@H]([C@@H](C)O)NC(=O)[C@H](Cc2ccccc2)NC(=O)[C@H]([C@@H](C)O)NC(=O)[C@H](CCCCN)NC(=O)[C@H](Cc2c[nH]c3ccccc23)NC(=O)[C@H](Cc2ccccc2)NC(=O)[C@H](Cc2ccccc2)NC(=O)[C@H](CC(N)=O)NC(=O)[C@H](CCCCN)NC1=O [somatostatin]
- ΔIRI, mean incremental change of IRI from basal ([1]; Study A, 0.3 μg peptide/100 gm body weight rat): 73.8 ± 18.5 μU/ml
- ΔIRI, mean incremental change of IRI from basal ([1]; Study A, 1.0 μg peptide/100 gm body weight rat): 43.0 ± 22.6 μU/ml
- ΔIRI, mean incremental change of IRI from basal ([1]; Study A, 3.0 μg peptide/100 gm body weight rat): 40.0 ± 6.6 μU/ml
- ΔIRI, mean incremental change of IRI from basal ([1]; Study A, 30.0 μg peptide/100 gm body weight rat): 23.2 ± 12.5 μU/ml
- ΔIRI, mean incremental change of IRI from basal ([1]; Study B, 0.03 μg peptide/100 gm body weight rat): 88.3 ± 9.1 μU/ml
- ΔIRI, mean incremental change of IRI from basal ([1]; Study B, 0.3 μg peptide/100 gm body weight rat): 76.8 ± 5.2 μU/ml
- ΔIRI, mean incremental change of IRI from basal ([1]; Study B, 3.0 μg peptide/100 gm body weight rat): 32.2 ± 3.5 μU/ml
- ΔIRI, mean incremental change of IRI from basal ([1]; Study B, 30.0 μg peptide/100 gm body weight rat): 35.5 ± 7.8 μU/ml
- ΔIRI, mean incremental change of IRI from basal ([1]; Study C, 10.0 μg peptide/100 gm body weight rat): 52.8 ± 9.3 μU/ml
- ΔIRI, mean incremental change of IRI from basal ([1]; Study C, 100.0 μg peptide/100 gm body weight rat): 25.5 ± 8.1 μU/ml
- suppression of IRI, comparison of effective dose ([1]; arginine stimulated, summary of Table I): suppresses IRI at a lower dose than does the peptide of formula I in which X is (CH2)2
- ΔIRG, mean incremental change of plasma IRG from level at 0 min to level at 30 min ([2]; Study A, 0.3 μg peptide/100 gm rat infused for 30 min with arginine): 157.2 ± 35.9 pg/mL
- ΔIRG, mean incremental change of plasma IRG from level at 0 min to level at 30 min ([2]; Study A, 1.0 μg peptide/100 gm rat infused for 30 min with arginine): 72.7 ± 19.0 pg/mL
- ΔIRG, mean incremental change of plasma IRG from level at 0 min to level at 30 min ([2]; Study A, 3.0 μg peptide/100 gm rat infused for 30 min with arginine): 102.5 ± 25.8 pg/mL
- ΔIRG, mean incremental change of plasma IRG from level at 0 min to level at 30 min ([2]; Study A, 30.0 μg peptide/100 gm rat infused for 30 min with arginine): 90.2 ± 38.4 pg/mL
- ΔIRG, mean incremental change of plasma IRG from level at 0 min to level at 30 min ([2]; Study B, 0.03 μg peptide/100 gm rat infused for 30 min with arginine): 211.0 ± 23.1 pg/mL
- ΔIRG, mean incremental change of plasma IRG from level at 0 min to level at 30 min ([2]; Study B, 0.3 μg peptide/100 gm rat infused for 30 min with arginine): 149.2 ± 29.9 pg/mL
- ΔIRG, mean incremental change of plasma IRG from level at 0 min to level at 30 min ([2]; Study B, 3.0 μg peptide/100 gm rat infused for 30 min with arginine): 69.3 ± 22.2 pg/mL
- ΔIRG, mean incremental change of plasma IRG from level at 0 min to level at 30 min ([2]; Study B, 30.0 μg peptide/100 gm rat infused for 30 min with arginine): 69.7 ± 8.4 pg/mL
- suppression of IRG secretion, comparison ([2]; arginine stimulated, summary of Table II): suppresses the IRG secretion about equally
- IRI/ml, level observed at 30 min ([3]; Study A, 10 μg peptide/100 gm rat infused for 30 min with glucose): 27.2 ± 4.7 μU/ml
- IRI/ml, level observed at 30 min ([3]; Study A, 100 μg peptide/100 gm rat infused for 30 min with glucose): 12.3 ± 3.9 μU/ml
- IRI/ml, level observed at 30 min ([3]; Study B, 10 μg peptide/100 gm rat infused for 30 min with glucose): 40.3 ± 7.7 μU/ml
- IRI/ml, level observed at 30 min ([3]; Study B, 30 μg peptide/100 gm rat infused for 30 min with glucose): 17.0 ± 7.5 μU/ml
- IRI/ml, level observed at 30 min ([3]; Study B, 100 μg peptide/100 gm rat infused for 30 min with glucose): 6.2 ± 1.9 μU/ml
- relative potency in suppressing IRI secretion ([3]; glucose stimulated, summary of Table III): significantly more potent than the peptide of formula I in which X is (CH2)2

From US4244947A, “Carba decapeptide derivatives of [TYR^6 ]-somatostatin” (Ayerst McKenna and Harrison Inc., priority 1979, dated 1981)
